According to publication PMC11413682 (Acta Pharmaceutica Sinica. B, 2024):
Like-named read-outs stand apart in the source and are kept apart here. Residues, ends and D or L forms follow the SMILES beside them. No end group written: not given here.

Molecular target: T1, CUL2^ZYG11B (residues 490–728) (Homo sapiens, UniProt Q9C0D3)
T1 construct: PCR was used to amplify CUL2^ZYG11B (residues 490–728); 6×His-SUMO (TEV-cleavable) (N, cleaved yes); made in house; host or cells: E. coli
Assay: ITC binding of ORF10 NTE synthetic peptides to CUL2^ZYG11B

[1] = figure panels, […], repeated 3 times, read-out: Kd

T1 sequence (Q9C0D3 490-728): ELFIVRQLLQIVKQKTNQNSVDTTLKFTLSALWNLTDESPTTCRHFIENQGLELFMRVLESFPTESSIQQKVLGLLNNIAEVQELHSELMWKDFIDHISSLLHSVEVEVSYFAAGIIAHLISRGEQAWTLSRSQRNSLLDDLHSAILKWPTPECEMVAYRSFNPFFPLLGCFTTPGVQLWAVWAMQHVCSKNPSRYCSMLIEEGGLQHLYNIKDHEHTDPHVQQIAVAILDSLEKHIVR

Molecule: NCC(=O)N[C@@H](Cc1ccc(O)cc1)C(=O)O [SARS-2 ORF10 N2] (H-Gly-Tyr-OH; N-terminus and C-terminus assumed)
- Kd: > 200 µM
- binding to CUL2^ZYG11B (in words) (ITC): did not bind
- N, stoichiometry (Table S4, ITC): 5.05
- ΔS, entropy variation (Table S4, ITC): 6.52 cal/mole/deg

Molecule: CC[C@H](C)[C@H](NC(=O)[C@H](Cc1ccc(O)cc1)NC(=O)CN)C(=O)O [SARS-2 ORF10 N3] (H-Gly-Tyr-Ile-OH)
- Kd [1]: 14.5 µM

Molecule: CC[C@H](C)[C@H](NC(=O)[C@H](Cc1ccc(O)cc1)NC(=O)CN)C(=O)N[C@@H](CC(N)=O)C(=O)O [SARS-2 ORF10 N4] (H-GYIN-OH)
- Kd [1]: 5.18 µM

Molecule: GAINV [SARS-2 ORF10 N5-Y2A]
- Kd [1]: 25.2 µM

Molecule: GFWCR [SNX11-degron-5, reference compound]
- Kd (Table S4, ITC, MicroCal iTC200, peptide 0.5–1 mmol/L in syringe, protein 0.03 mmol/L in cell, 18 x 2 μL injections, repeated 3 times, Kd calculated as 1/Ka, read-out: Kd): 0.4 µM

Molecule: GPINV [SARS-2 ORF10 N5-Y2P, altered peptide derived from SARS-CoV-2 ORF10 N5, Y2P]
- binding to CUL2^ZYG11B (in words) (ITC): disrupted binding completely

Molecule: SYINV [SARS-2 ORF10 N5-G1S]
- Kd: 13.2 µM
